# Data from article PMC12262620 (bioRxiv, 2025).
# Experiments:
# [1] = tested on: LgBiT-eIF4E cells; test: CellTiter-Glo cell viability assay; format: cell-based, human; settings: 6-hour treatment, at the concentrations tested
# [2] = biological target: eIF4E binding to m^7GTP RNA substrate (Homo sapiens, UniProt P06730); test: cell-based; settings: 6-hour treatment
# [3] = biological target: His10-eIF4E (human, UniProt P06730 1-217); test: FP competition
# [4] = IC50 in CRISPR RiPCA, read at 24 hours
# [5] = IC50 values as 95% confidence intervals, CRISPR RiPCA
# Sequence of eIF4E binding to m^7GTP RNA substrate (P06730 whole entry): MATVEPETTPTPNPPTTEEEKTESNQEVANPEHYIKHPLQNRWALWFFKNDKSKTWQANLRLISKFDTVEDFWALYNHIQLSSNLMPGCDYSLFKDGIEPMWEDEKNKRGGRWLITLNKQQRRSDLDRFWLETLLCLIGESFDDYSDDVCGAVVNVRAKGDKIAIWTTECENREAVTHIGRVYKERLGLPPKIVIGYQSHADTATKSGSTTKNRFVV
# Sequence of His10-eIF4E (P06730 whole entry): as above
Molecule,cell viability / cell death [1],"IC50 [2, 4] [nM]","IC50 [2, 5] [nM]",binding result [3]
O=C(O)C(Cc1ccccc1[N+](=O)[O-])=NNc1nc(-c2ccc(Cl)c(Cl)c2)cs1 (mixture of isomers) [4EGI-1],Absence of viability defects,–,–,–
Cc1cc(-c2cc(Cl)ccc2OCCn2c(C)nc3cc(C(F)(F)F)cc(C#N)c3c2=O)c2scc(C(=O)O)c2n1 [compound 2],–,124,91 to 171,–
CO[C@H]1C[C@@H]2CC[C@@H](C)[C@@](O)(O2)C(=O)C(=O)N2CCCC[C@H]2C(=O)O[C@H]([C@H](C)C[C@@H]2CC[C@@H](O)[C@H](OC)C2)CC(=O)[C@H](C)/C=C(\C)[C@@H](O)[C@@H](OC)C(=O)[C@H](C)C[C@H](C)/C=C/C=C/C=C/1C [rapamycin],Absence of viability defects,4700,1900 to 11000,–
"GCUUCAAGAU (ssRNA, no cap; 3' C6 amine) [G RNA (uncapped)]",–,–,–,no binding
